27 compounds from patent publication US10370366B2 (Flatley Discovery Lab, LLC, priority 2013, dated 2019) can be followed below.

The assay concerns the target T1, human F508del CFTR (Homo sapiens, UniProt P13569, DEL508-508).
T1 construct: expressed in transfected cells; host or cells: Fisher Rat Thyroid (FRT) cells
The experiment in a line: CFTR-YFP High Throughput Assay. In kind it is cell-based. The settings on record: FRT cells expressing human F508del CFTR and YFP; for Emax: EMax normalized to the positive control, read-out: % Efficacy. In outline: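 Corrector mode: 24-26 h compound exposure (2 nM-40 μM, 37° C) of FRT cells carrying human F508del CFTR and YFP-H148Q/I152L, followed by washing and 60-120 min RT stimulation with 20 μM forskolin and 30 μM P3. CFTR activity is the least-squares-fitted rate of YFP quenching (Ex 500/Em 540 nm) after iodide addition.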

T1 sequence (P13569 with tags, fused parts or gaps DEL508-508): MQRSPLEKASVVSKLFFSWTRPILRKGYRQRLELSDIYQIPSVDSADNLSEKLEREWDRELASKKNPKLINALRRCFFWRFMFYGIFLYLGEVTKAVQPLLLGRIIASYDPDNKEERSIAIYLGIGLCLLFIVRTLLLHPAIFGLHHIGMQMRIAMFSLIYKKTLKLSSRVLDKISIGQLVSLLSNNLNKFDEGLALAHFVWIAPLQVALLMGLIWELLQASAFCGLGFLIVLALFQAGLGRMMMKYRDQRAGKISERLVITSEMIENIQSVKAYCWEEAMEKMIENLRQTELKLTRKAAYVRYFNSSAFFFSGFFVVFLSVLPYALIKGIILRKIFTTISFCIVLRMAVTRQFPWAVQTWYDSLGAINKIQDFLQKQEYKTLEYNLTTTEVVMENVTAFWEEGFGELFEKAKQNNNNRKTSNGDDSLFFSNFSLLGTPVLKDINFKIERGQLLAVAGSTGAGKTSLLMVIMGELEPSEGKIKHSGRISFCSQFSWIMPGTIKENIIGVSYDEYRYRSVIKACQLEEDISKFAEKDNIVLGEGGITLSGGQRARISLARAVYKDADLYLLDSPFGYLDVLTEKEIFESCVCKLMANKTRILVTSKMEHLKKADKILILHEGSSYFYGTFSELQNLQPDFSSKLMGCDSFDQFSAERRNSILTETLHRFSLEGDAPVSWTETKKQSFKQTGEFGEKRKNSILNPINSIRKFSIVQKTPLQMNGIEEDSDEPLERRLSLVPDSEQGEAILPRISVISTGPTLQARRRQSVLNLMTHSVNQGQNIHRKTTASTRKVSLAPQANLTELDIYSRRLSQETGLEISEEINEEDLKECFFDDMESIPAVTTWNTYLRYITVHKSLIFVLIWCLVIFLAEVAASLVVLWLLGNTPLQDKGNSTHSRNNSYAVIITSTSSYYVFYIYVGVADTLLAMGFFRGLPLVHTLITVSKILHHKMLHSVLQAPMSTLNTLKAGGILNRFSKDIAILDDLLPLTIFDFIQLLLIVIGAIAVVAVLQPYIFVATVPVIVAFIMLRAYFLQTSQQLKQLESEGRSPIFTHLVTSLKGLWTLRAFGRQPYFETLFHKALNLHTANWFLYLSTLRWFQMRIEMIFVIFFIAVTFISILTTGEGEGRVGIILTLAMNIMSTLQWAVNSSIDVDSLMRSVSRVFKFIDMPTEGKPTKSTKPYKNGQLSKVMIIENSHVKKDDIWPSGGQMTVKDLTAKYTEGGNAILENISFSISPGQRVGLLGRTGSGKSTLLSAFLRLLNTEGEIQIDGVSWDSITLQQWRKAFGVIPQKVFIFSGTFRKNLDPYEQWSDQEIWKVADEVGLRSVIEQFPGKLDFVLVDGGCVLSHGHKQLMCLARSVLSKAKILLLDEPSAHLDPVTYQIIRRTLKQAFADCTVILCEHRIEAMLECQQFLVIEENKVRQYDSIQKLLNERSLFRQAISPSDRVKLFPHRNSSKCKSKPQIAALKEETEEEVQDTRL

`CCN(C(=O)Cn1nc(C(=O)Nc2ccccc2C#N)c2ccccc2c1=O)c1ccc2c(c1)OC(F)(F)O2` [Example 124, N-(2-cyanophenyl)-3-(2-((2,2-difluorobenzo[d][1, 3]dioxol-5-yl)(ethyl)amino)-2-oxoethyl)-4-oxo-3,4-dihydrophthalazine-1-carboxamide]: the Emax is 30 to 80%.

For the compound `CCN(C(=O)Cn1nc(C(=O)Nc2cc(Cl)ccc2C(=O)O)c2ccccc2c1=O)c1ccc2c(c1)OC(F)(F)O2` [Example 125], the Emax is 30 to 80%.

As to `CCN(C(=O)Cn1nc(C(=O)Nc2ccccn2)c2ccccc2c1=O)c1ccc2c(c1)OC(F)(F)O2` [Example 126, 3-(2-((2,2-difluorobenzo[d][1,3]dioxol-5-yl)(ethyl)amino)-2-oxoethyl)-4-oxo-N-(pyridin-2-yl)-3,4-dihydrophthalazine-1-carboxamide], the Emax was in the range of 30 to 80% and the EC50 (usually the concentration giving half of the maximal effect) is less than 10 µM.

In the case of `CCN(C(=O)Cn1nc(C(=O)N(C)c2ccccn2)c2ccccc2c1=O)c1ccc2c(c1)OC(F)(F)O2` [Example 127, 3-(2-((2,2-difluorobenzo[d][1,3]dioxol-5-yl)(ethyl)amino)-2-oxoethyl)-N-methyl-4-oxo-N-(pyridin-2-yl)-3,4-dihydrophthalazine-1-carboxamide], the Emax fell in the range of 30 to 80% and the half-maximal effective concentration (EC50) is less than 10 µM.

For `CCc1ccc(N(CC)C(=O)Cn2nc(C(=O)Nc3cc(Cl)ccc3C#N)c3ccccc3c2=O)cc1` [Example 128, N-(5-chloro-2-cyanophenyl)-3-(2-(ethyl(4-ethylphenyl)amino)-2-oxoethyl)-4-oxo-3,4-dihydrophthalazine-1-carboxamide], the Emax lay within 30 to 80% and the concentration for a half-maximal effect (EC50) lay within 10 to 20 µM.

Take `CCN(C(=O)Cn1nc(C(=O)N(CC)c2ccccc2C#N)c2ccccc2c1=O)c1ccc2c(c1)OC(F)(F)O2` [Example 129, N-(2-cyanophenyl)-3-(2-((2,2-difluorobenzo[d][1,3]dioxol-5-yl)(ethyl)amino)-2-oxoethyl)-N-ethyl-4-oxo-3,4-dihydrophthalazine-1-carboxamide]: the Emax lay in the range of 30 to 80% and the EC50 lay in the range of 10 to 20 µM.

As to `CCc1ccc(N(CC)C(=O)Cn2nc(C(=O)Nc3cc(Cl)ccc3C(=O)OC)c3ccccc3c2=O)cc1` [Example 130, methyl 4-chloro-2-(3-(2-(ethyl(4-ethylphenyl)amino)-2-oxoethyl)-4-oxo-3,4-dihydrophthalazine-1-carboxamido)benzoate], the Emax was in the range of 30 to 80%.

For the compound `CCN(C(=O)Cn1ncc2c(c1=O)c1ccccc1n2Cc1ccccn1)c1ccc2c(c1)OC(F)(F)O2` [Example 131, N-(2,2-difluorobenzo[d][1, 3]dioxol-5-yl)-N-ethyl-2-(1-oxo-5-(pyridin-2-ylmethyl)-1H-pyridazino[4,5-b]indol-2(5H)-yl)acetamide], the Emax lay within 30 to 80%.

Regarding `CCN(C(=O)Cn1ncc2c(c1=O)c1ccccc1n2CCOC)c1ccc2c(c1)OC(F)(F)O2` [Example 132, N-(2,2-difluorobenzo[d][1,3]dioxol-5-yl)-N-ethyl-2-(5-(2-methoxyethyl)-1-oxo-1H-pyridazino[4,5-b]indol-2(5H)-yl)acetamide], the Emax is 30 to 80%.

Take `CCN(C(=O)Cn1ncc2c(c1=O)c1ccccc1n2Cc1ccccc1)c1ccc2c(c1)OC(F)(F)O2` [Example 133, 2-(5-benzyl-1-oxo-1H-pyridazino[4,5-b]indol-2(5H)-yl)-N-(2,2-difluorobenzo[d][1,3]dioxol-5-yl)-N-ethylacetamide]: the Emax fell in the range of 30 to 80%.

`CCN(C(=O)Cn1ncc2c(c1=O)c1ccccc1n2CCC(=O)OC)c1ccc2c(c1)OC(F)(F)O2` [Example 134, methyl 3-(2-(2-((2,2-difluorobenzo[d][1,3]dioxol-5-yl)(ethyl)amino)-2-oxoethyl)-1-oxo-1H-pyridazino[4,5-b]indol-5(2H)-yl)propanoate]: the Emax was 30 to 80%.

Regarding `CCN(C(=O)Cn1ncc2c(c1=O)c1ccccc1n2Cc1cccc(OC)c1)c1ccc2c(c1)OC(F)(F)O2` [Example 135, N-(2,2-difluorobenzo[d][1,3]dioxol-5-yl)-N-ethyl-2-(5-(3-methoxybenzyl)-1-oxo-1H-pyridazino[4,5-b]indol-2(5H)-yl)acetamide], the Emax was 30 to 80% and the EC50 was less than 10 µM.

For `CCN(C(=O)Cn1ncc2c(c1=O)c1ccccc1n2Cc1ccc(OC)cc1)c1ccc2c(c1)OC(F)(F)O2` [Example 136, N-(2,2-difluorobenzo[d][1,3]dioxol-5-yl)-N-ethyl-2-(5-(4-methoxybenzyl)-1-oxo-1H-pyridazino[4,5-b]indol-2(5H)-yl)acetamide], the Emax lay in the range of 30 to 80% and the concentration giving a half-maximal response (EC50) was less than 10 µM.

As for `CCN(C(=O)Cn1ncc2c(c1=O)c1ccccc1n2CCCOC)c1ccc2c(c1)OC(F)(F)O2` [Example 137, N-(2,2-difluorobenzo[d][1,3]dioxol-5-yl)-N-ethyl-2-(5-(3-methoxypropyl)-1-oxo-1H-pyridazino[4,5-b]indol-2(5H)-yl)acetamide], the Emax lay within 30 to 80%.

For `CCN(C(=O)Cn1ncc2c(c1=O)c1ccccc1n2CCC#N)c1ccc2c(c1)OC(F)(F)O2` [Example 138, 2-(5-(2-cyanoethyl)-1-oxo-1H-pyridazino[4,5-b]indol-2(5H)-yl)-N-(2,2-difluorobenzo[d][1,3]dioxol-5-yl)-N-ethylacetamide], the Emax was 10 to 30% and the EC50 was more than 20 µM.

With `CCN(C(=O)Cn1ncc2c(c1=O)c1ccccc1n2CC#N)c1ccc2c(c1)OC(F)(F)O2` [Example 139, 2-(5-(cyanomethyl)-1-oxo-1H-pyridazino[4,5-b]indol-2(5H)-yl)-N-(2,2-difluorobenzo[d][1,3]dioxol-5-yl)-N-ethylacetamide], the Emax is 30 to 80% and the half-maximal effective concentration (EC50) was in the range of 10 to 20 µM.

`CCN(C(=O)Cn1ncc2c(c1=O)c1ccccc1n2Cc1cccnc1)c1ccc2c(c1)OC(F)(F)O2` [Example 140, N-(2,2-difluorobenzo[d][1,3]dioxol-5-yl)-N-ethyl-2-(1-oxo-5-(pyridin-3-ylmethyl)-1H-pyridazino[4,5-b]indol-2(5H)-yl)acetamide]: the Emax was 30 to 80%.

In the case of `CCN(C(=O)Cn1ncc2c(c1=O)c1ccccc1n2Cc1ccccc1C#N)c1ccc2c(c1)OC(F)(F)O2` [Example 141, 2-(5-(2-cyanobenzyl)-1-oxo-1H-pyridazino[4,5-b]indol-2(5H)-yl)-N-(2,2-difluorobenzo[d][1,3]dioxol-5-yl)-N-ethylacetamide], the Emax fell in the range of 30 to 80%.

Consider `CCN(C(=O)Cn1ncc2c(c1=O)c1ccccc1n2Cc1cccc(C#N)c1)c1ccc2c(c1)OC(F)(F)O2` [Example 142, 2-(5-(3-cyanobenzyl)-1-oxo-1H-pyridazino[4,5-b]indol-2(5H)-yl)-N-(2,2-difluorobenzo[d][1,3]dioxol-5-yl)-N-ethylacetamide], for which the Emax was in the range of 30 to 80%.

In the case of `CCN(C(=O)Cn1ncc2c(c1=O)c1ccccc1n2Cc1ccncc1)c1ccc2c(c1)OC(F)(F)O2` [Example 143, N-(2,2-difluorobenzo[d][1,3]dioxol-5-yl)-N-ethyl-2-(1-oxo-5-(pyridin-4-ylmethyl)-1H-pyridazino[4,5-b]indol-2(5H)-yl)acetamide], the Emax was 30 to 80%.

`CCN(C(=O)Cn1ncc2c(c1=O)c1ccccc1n2Cc1ccc(C#N)cc1)c1ccc2c(c1)OC(F)(F)O2` [Example 144, 2-(5-(4-cyanobenzyl)-1-oxo-1H-pyridazino[4,5-b]indol-2(5H)-yl)-N-(2-2-difluorobenzo[d][1,3]dioxol-5-yl)-N-ethylacetamide]: the Emax is more than 80% and the concentration for a half-maximal effect (EC50) was 10 to 20 µM.

For `CCN(C(=O)Cn1ncc2c(c1=O)c1ccccc1n2Cc1ccc(C#N)c(F)c1)c1ccc2c(c1)OC(F)(F)O2` [Example 145, 2-(5-(4-cyano-3-fluorobenzyl)-1-oxo-1H-pyridazino[4,5-b]indol-2(5H)-yl)-N-(2,2-difluorobenzo[d][1,3]dioxol-5-yl)-N-ethylacetamide], the Emax lay within 30 to 80% and the concentration for a half-maximal effect (EC50) is less than 10 µM.

In the case of `CCN(C(=O)Cn1ncc2c(c1=O)c1ccccc1n2Cc1ccc(C#N)cc1F)c1ccc2c(c1)OC(F)(F)O2` [Example 146, 2-(5-(4-cyano-2-fluorobenzyl)-1-oxo-1H-pyridazino[4,5-b]indol-2(5H)-yl)-N-(2,2-difluorobenzo[d][1,3]dioxol-5-yl)-N-ethylacetamide], the Emax is 30 to 80% and the half-maximal effective concentration (EC50) is less than 10 µM.

As for `Cc1nc2ccc(N(C)C(=O)Cn3ncc4c(c3=O)c3ccccc3n4Cc3ccc(Cl)cc3)cc2o1` [Example 147, 2-(5-(4-chlorobenzyl)-1-oxo-1,5-dihydro-2H-pyridazino[4,5-b]indol-2-yl)-N-methyl-N-(2-methylbenzo[d]oxazol-6-yl)acetamide], the Emax was 30 to 80% and the EC50 was less than 10 µM.

On to `Cc1nc2ccc(N(C)C(=O)Cn3ncc4c(c3=O)c3ccccc3n4Cc3ccc(F)cc3)cc2o1` [Example 148, 2-(5-(4-fluorobenzyl)-1-oxo-1,5-dihydro-2H-pyridazino[4,5-b]indol-2-yl)-N-methyl-N-(2-methylbenzo[d]oxazol-6-yl)acetamide], for which the Emax was 30 to 80% and the concentration giving a half-maximal response (EC50) is less than 10 µM.

Take `Cc1nc2ccc(N(C)C(=O)Cn3ncc4c(c3=O)c3ccccc3n4Cc3ccc(C#N)cc3)cc2o1` [Example 149, 2-(5-(4-cyanobenzyl)-1-oxo-1,5-dihydro-2H-pyridazino[4,5-b]indol-2-yl)-N-methyl-N-(2-methylbenzo[d]oxazol-6-yl)acetamide]: the Emax is 30 to 80% and the half-maximal effective concentration (EC50) was less than 10 µM.

`Cc1ccc(-n2nc(C(=O)N3CCCCC3)c3c4ccccc4n(C)c3c2=O)cc1` [Example 150, 5-methyl-1-(piperidine-1-carbonyl)-3-p-tolyl-3H-pyridazino [4,5-b]indol-4(5H)-one]: the Emax is 30 to 80%.
